Assay results: article PMC10329651, “ATPase activity of DFCP1 controls selective autophagy” (Nature Communications, 2023)

How the values were obtained:
DFCP1-FL = molecular target: T1, DFCP1-FL (Homo sapiens, UniProt Q9HBF4); test: malachite green phosphate release (Biomol Green); assay type: biochemical; details: 0.5 mM ATP, 10 mM MgCl2, 10 µM ZnCl2, pH 7.5, 37 °C, 30 min; with and without liposomes
T1 construct: gene ZFYVE1; full length, His6-tagged, Sf9 baculovirus
T1 sequence (Q9HBF4 1-777): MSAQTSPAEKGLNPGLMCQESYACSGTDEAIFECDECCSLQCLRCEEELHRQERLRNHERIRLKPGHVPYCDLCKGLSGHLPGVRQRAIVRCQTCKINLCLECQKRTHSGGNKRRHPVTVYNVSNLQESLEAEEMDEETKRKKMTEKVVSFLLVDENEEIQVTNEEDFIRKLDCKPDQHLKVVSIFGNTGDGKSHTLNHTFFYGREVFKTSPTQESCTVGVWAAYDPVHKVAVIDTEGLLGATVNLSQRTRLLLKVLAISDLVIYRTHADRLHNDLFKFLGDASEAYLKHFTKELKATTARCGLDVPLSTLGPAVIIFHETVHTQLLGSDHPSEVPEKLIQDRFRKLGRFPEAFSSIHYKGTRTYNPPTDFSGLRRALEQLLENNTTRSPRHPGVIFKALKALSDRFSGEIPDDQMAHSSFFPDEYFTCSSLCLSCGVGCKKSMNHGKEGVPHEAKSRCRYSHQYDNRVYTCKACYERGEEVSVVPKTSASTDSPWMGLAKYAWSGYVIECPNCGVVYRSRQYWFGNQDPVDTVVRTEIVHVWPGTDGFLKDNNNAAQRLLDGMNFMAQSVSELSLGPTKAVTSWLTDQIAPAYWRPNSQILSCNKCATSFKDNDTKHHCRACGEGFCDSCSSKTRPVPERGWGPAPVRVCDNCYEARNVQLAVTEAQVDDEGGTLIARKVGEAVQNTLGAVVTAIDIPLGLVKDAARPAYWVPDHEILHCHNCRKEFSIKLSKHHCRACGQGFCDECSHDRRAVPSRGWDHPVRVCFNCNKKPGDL

DFCP1 WT (aa 1–410) = molecular target: T2, DFCP1 WT (aa 1–410) (Homo sapiens, UniProt Q9HBF4); test: size exclusion chromatography, nucleotide-dependent dimerization; assay type: binding; details: 400 µM nucleotide, 50 mM MgCl2; non-hydrolysable ATP analogue
T2 construct: gene ZFYVE1; N-terminal ATPase domain, aa 1-410, His6-MBP fusion (pET-His6-MBP-TEV-LIC, E. coli Rosetta2(DE3))
T2 sequence (Q9HBF4 1-410): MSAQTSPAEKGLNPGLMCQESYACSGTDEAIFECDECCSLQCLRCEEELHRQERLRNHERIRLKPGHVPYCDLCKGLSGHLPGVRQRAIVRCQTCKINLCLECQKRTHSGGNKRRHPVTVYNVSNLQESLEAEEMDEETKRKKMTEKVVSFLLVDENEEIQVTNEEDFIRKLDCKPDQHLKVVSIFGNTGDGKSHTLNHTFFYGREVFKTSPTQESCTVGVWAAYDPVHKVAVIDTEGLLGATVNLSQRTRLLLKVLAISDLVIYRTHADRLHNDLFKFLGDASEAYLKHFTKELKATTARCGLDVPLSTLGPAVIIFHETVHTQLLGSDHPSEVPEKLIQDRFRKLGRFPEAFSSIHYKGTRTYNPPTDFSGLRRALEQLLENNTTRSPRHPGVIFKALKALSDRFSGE

[1] = molecular target: the molecule itself; test: SEC; protein loaded with 400 µM ATPγS for 20 min at RT in exchange buffer (50 mM Tris, 150 mM NaCl, 50 mM MgCl2, 10% glycerol, 1 mM TCEP); Superdex 200 Increase 10/300 GL, isocratic elution at 4 °C, 0.25 ml/min; molecular weights relative to a Bio-Rad gel filtration standard

Molecule: Nc1ncnc2c1ncn2[C@@H]1O[C@H](COP(=O)(O)OP(=O)(O)OP(=O)(O)O)[C@@H](O)[C@H]1O [ATP]
- malachite green phosphate release (Biomol Green) (DFCP1-FL): Addition of liposomes to purified full-length DFCP1 resulted in a modest, but significant increase

Molecule: Nc1ncnc2c1ncn2[C@@H]1O[C@H](COP(=O)(O)OP(=O)(O)OP(O)(O)=S)[C@@H](O)[C@H]1O [ATPγS]
- size exclusion chromatography, nucleotide-dependent dimerization (DFCP1 WT (aa 1–410)): ADP-bound DFCP1 migrated as a monomer, ATPγS-loaded DFCP1 migrated as dimer

B1: His6-MBP-DFCP1 WT (aa 1-410) (domain or fragment, UniProt Q9HBF4 1-410, looked up)
chain: T2 sequence (Q9HBF4 1-410)
notes: Loaded with ADP or ATPγS before size exclusion chromatography; dimer with ATPγS, monomer with ADP; The vector has a TEV site, but no cleavage is described; also called DFCP1 N-terminus; DFCP1 ATPase domain; not shown: His6, N-terminal, kept; MBP, N-terminal, kept
- stoichiometry N [1]: 2
